From US20140219999A1, “TREATMENT OF COLON CANCER USING COMPLEMENT INHIBITORS” (priority 2011, published 2014)

Assays:
[1] = tested on: activated AKT (pS473), IKK (pS176) and NFκB (pS536); assay: Western analysis of intestinal tissue of treated B6.Apc^Min/+ mice (NFκB signaling); format: in vivo, mouse; conditions: after 30 days on HFCoco diet and treatment; compared to control inhibitor
Source text: To test the function of this reduction in polyp number in mice treated with the C5aR inhibitor, intestinal tissues were collected and used to extract RNA and protein for expression and western analysis, respectively.

[2] = tested on: B6.Apc^Min/+ model of intestinal neoplasia; assay: Polyp number and cross sectional polyp area in B6.Apc^Min/+ mice treated with C5aR antagonist on HFCoco diet; format: in vivo, mouse; conditions: 1 mg/kg subcutaneously every other day for 30 days
Source text: B6.Apc^Min/+ is a mouse model for intestinal neoplasia that carry a mutation in the Apc gene similar to that found in over 85% of sporadic colon cancer cases in humans. The APC mutation results in improper binding of β-catenin to the degradation complex and models the mutation observed in most sporadic human colon cancer tumors. B6.Apc^Min/+ mice develop 50-80 intestinal polyps in the small intestine by 120 days of age (Heijstek et al., 2005, Digest Surg. 22: 16-25). The APC amino acid sequence is 90% identical to that of the human APC.
B6.Apc^Min/+ and the CCSs (A2.Apc^Min/+, A7.Apc^Min/+, A9.Apc^Min/+, A17.Apc^Min/+, and A19.Apc^Min/+) along with the corresponding wild-type controls (B6, B6.A2, B6.A7, B6.A9, B6.A17 and B6.A19, respectively) were born and maintained on the standard 5010 diet until 30 days of age. Male mice were genotyped for the APC mutation using DNA that was purified from tail tissue taken at weaning. […] Body weight and length (to calculate BMI) as well as epidydimal fat pad mass were measured at the final time point.
Body weight and length were measured to calculate body mass index (BMI). Polyp number and polyp size from the small and large intestine were measured. […] The large intestine was excised and analyzed as one region (LI-1). […]

Question: Which results are given for “Acetyl-Phe-[Orn-Pro-D-cyclohexylalanine-Trp-Arg] [PMX-53]”?
Answer: activated AKT (pS473) protein level in intestine [1]: significant reduction; activated IKK (pS176) protein level in intestine [1]: significant reduction; activated NFκB (pS536) protein level in intestine [1]: significant reduction; cross sectional polyp area [2]: significantly reduced; polyp number ([2]; compared to untreated mice or mice injected with control inhibitor): significant reduction
